Laboratory results taken from patent publication EP0889884B1, “1,2,4-TRIAZINE DERIVATIVES FOR THE INHIBITION OF PROTEIN GLYCOSYLATION” (ALTEON Inc., priority 1996, dated 1997).
Structures can show the parent of a compound that is named as a salt.

Assays:
[1] = Inhibition of cross-linking of N-acetyl glycyl-lysine methyl ester in the presence of ribose (fluorescence); assay type: biochemical; conditions: 0.5 M sodium phosphate buffer pH 7.4, 37° C, 16-24 hours, fluorescence 350/400 nm
Description: The following method was used to evaluate the ability of the compounds of the present invention to inhibit the cross-linking of N-acetyl glycyl-lysine methyl ester in the presence of ribose. […] Reaction mixtures are prepared as follows: [table] […] At the end of the incubation period reaction mixture is diluted with 3 ml distilled water and the fluorescence is read using an excitation wavelength of 350 nm and emission wavelength of 400 nm.

[2] = test system: fixed protein (gelatin, i.e., collagen) surface; assay: Surface browning experiment on gelatin/paper disks in glucose-6-phosphate; conditions: 100 mM glucose-6-phosphate, one week at 50°C; Peridex® at a final concentration of 0.04% chlorhexidine
Description: To further study the ability of inhibitors of nonenzymatic browning to prevent the discoloration of protein on a surface, such as that which occurs on the tooth surface, the following surface browning experiment is performed. As a substitute for a pellicle-covered tooth surface, unexposed and developed photographic paper is used to provide a fixed protein (gelatin, i.e., collagen) surface on a paper backing. Five millimeter circles are punched and immersed for one week at 50°C in a solution of 100 mM glucose-6-phosphate in a 0.5 M phosphate buffer, pH 7.4, containing 3 mM sodium azide. […] In addition to the glucose-6-phosphate, chlorhexidine and/or a compound of Formula I are included. After incubation, the gelatin/paper disks are rinsed with water, observed for brown color, and photographed.

Row | Compound | IC50 [1] [µM] | brown color of gelatin/paper disks [2]
1 | CCCc1nnc(N)n(N)c1=O [3,4-diamino-6-propyl-1,2,4-triazine-5(4H)-one hydrochloride] | 1300 | –
2 | CCC(C)c1nnc(N)n(N)c1=O (centres unmarked) [3,4-diamino-6-(1-methylpropyl)-1,2,4-triazine-5(4H)-one] | 1400 | –
3 | NNc1nncc(=O)n1N [4-amino-3-hydrazino-1,2,4-triazin-5(4H)-one hydrochloride] | > 10000 | –
4 | Nc1nnc(CCc2ccccc2)c(=O)n1N [3,4-diamino-6-phenethyl-1,2,4-triazine-5(4H)-one hydrochloride] | 2700 | –
5 | Nc1nnc(CCC(=O)O)c(=O)n1N [3,4-diamino-6-(2'-carboxyethyl)-1,2,4-triazine-5(4H)-one] | 1970 | –
6 | CCOC(=O)c1nnc(N)n(N)c1=O [3,4-diamino-6-carboxyethyl-1,2,4-triazine-5(4H)-one hydrochloride] | 720 | –
7 | [H]/N=C(\N/C(=N/[H])NCCCCCCNC(=N)NC(=N)Nc1ccc(Cl)cc1)Nc1ccc(Cl)cc1 [chlorhexidine] | – | significant browning
8 | Nc1nnc(C2CC2)c(=O)n1N [3,4-diamino-6-cyclopropyl-1,2,4-triazine-5(4H)-one] | 2000 | –
9 | CCOC(=O)C(C)c1nnc(N)n(N)c1=O (centres unmarked) [3,4-diamino-6-(1'-ethoxycarbonylethyl)-1,2,4-triazine-5(4H)-one hydrochloride] | 1650 | –
10 | COc1cccc(C(=O)Cc2nnc(N)n(N)c2=O)c1 [3,4-diamino-6-(3'-methoxyphenylcarbonylmethylene)-1,2,4-triazine-5(4H)-one hydrochloride] | > 10000 | –
11 | Cc1nnc(NN)n(N)c1=O [4-amino-3-hydrazino-6-methyl-1,2,4-triazin-5(4H)-one hydrochloride] | < 3000 | –
12 | CCc1nnc(N)n(N)c1=O [3,4-diamino-6-ethyl-1,2,4-triazine-5(4H)-one hydrochloride] | 2000 | –
13 | Nc1nnc(Cc2ccccc2[N+](=O)[O-])c(=O)n1N [3,4-diamino-6-(2'-nitrobenzyl)-1,2,4-triazine-5(4H)-one hydrochloride] | 900 | –
14 | Nc1nnc(Cc2ccc(O)cc2)c(=O)n1N [3,4-diamino-6-(4-hydroxybenzyl)-1,2,4-triazine-5(4H)-one hydrochloride] | 4400 | –
15 | NNC(=O)CCc1nnc(N)n(N)c1=O [3-[6'-(3',4'-diamino-5'(4H)-one-1',2',4'-triazinyl)]-propionic hydrazide hydrochloride] | 1500 | –
16 | NNc1nnc(Cc2ccc(O)cc2)c(=O)n1N [4-amino-3-hydrazino-6-(4'-hydroxybenzyl)-1,2,4-triazin-5(4H)-one hydrochloride] | > 1000 | –

More lines, in order of falling IC50 [1], values ahead:

Row | IC50 [1] [µM] | Compound | brown color of gelatin/paper disks [2]
17 | 1230 | Cc1nnc(N)n(N)c1=O [3,4-diamino-6-methyl-1,2,4-triazine-5(4H)-one] | –
18 | 1200 | Nc1nnc(Cc2ccccc2)c(=O)n1N [3,4-diamino-6-benzyl-1,2,4-triazine-5(4H)-one hydrochloride] | –
19 | 1160 | CC(C)Cc1nnc(N)n(N)c1=O [3,4-diamino-6-(2-methypropyl)-1,2,4-triazine-5(4H)-one] | –
20 | 1050 | CC(C)c1nnc(N)n(N)c1=O [3,4-diamino-6-isopropyl-1,2,4-triazine-5(4H)-one hydrochloride] | –
21 | 970 | CC(C)(CO)c1nnc(N)n(N)c1=O [3,4-diamino-6-(1',1'-dimethyl-2'-hydroxyethyl)-1,2,4-triazine-5(4H)-one] | –
22 | 840 | CCOC(=O)CCc1nnc(N)n(N)c1=O [3,4-diamino-6-(2'-ethoxycarbonylethyl)-1,2,4-triazine-5(4H)-one hydrochloride] | –
23 | 830 | 2-methyl-[6'-(3',4'-diamino-5(4H)-one-1,2,4-triazinyl)]hydrazide | –
24 | 730 | NNC(=O)c1nnc(N)n(N)c1=O [6-(3',4'-diamino-5(4H)-one-1,2,4-triazinyl)hydrazide] | –
25 | 480 | CCCCCCC(C(=O)OCC)c1nnc(N)n(N)c1=O (centres unmarked) [3,4-diamino-6-(1'-ethoxycarbonylheptyl)-1,2,4-triazine-5(4H)-one hydrochloride] | –
26 | 350 | COc1ccc(C=Cc2nnc(N)n(N)c2=O)cc1OC [3,4-diamino-6-(3,4-dimethoxystyryl)-1,2,4-triazine-5(4H)-one hydrochloride] | –
